# In PubChem BioAssay (NCI):
#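 Cells were grown in 96-well plates and exposed to each compound for 48 hours at five concentrations; endpoints were interpolated linearly between bracketing concentrations, or set to the highest concentration if not reached. The concentration for 50% growth inhibition is given as GI50. TGI marks complete inhibition of growth.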
# Experiments:
# Experiment in all cases: growth of human tumour cells (NCI), 48 h
# HOP-62 NSCLC = test system: HOP-62 NSCLC
# CAKI-1 renal = test system: CAKI-1 renal
# NCI-H23 lung = test system: NCI-H23 lung
# HS 578T breast = test system: HS 578T breast
# SN12C renal = test system: SN12C renal
# SR leukemia = test system: SR leukemia
# SK-OV-3 ovarian = test system: SK-OV-3 ovarian
# MALME-3M melanoma = test system: MALME-3M melanoma
# SF-539 CNS = test system: SF-539 CNS
# SF-295 CNS = test system: SF-295 CNS
# NCI-H460 lung = test system: NCI-H460 lung
# A498 renal = test system: A498 renal
# UACC-257 melanoma = test system: UACC-257 melanoma
# OVCAR-8 ovarian = test system: OVCAR-8 ovarian
# CCRF-CEM leukemia = test system: CCRF-CEM leukemia
# RXF 393 renal = test system: RXF 393 renal
# NCI-H226 lung = test system: NCI-H226 lung
# K-562 leukemia = test system: K-562 leukemia
# EKVX NSCLC = test system: EKVX NSCLC
# U251 CNS = test system: U251 CNS
# HCC-2998 colon = test system: HCC-2998 colon
# SK-MEL-2 melanoma = test system: SK-MEL-2 melanoma
# PC-3 prostate = test system: PC-3 prostate
# HL-60(TB) leukemia = test system: HL-60(TB) leukemia
# LOX IMVI melanoma = test system: LOX IMVI melanoma
# UACC-62 melanoma = test system: UACC-62 melanoma
# HCT-116 colon = test system: HCT-116 colon
# HOP-92 NSCLC = test system: HOP-92 NSCLC
# NCI-H522 lung = test system: NCI-H522 lung
# TK-10 renal = test system: TK-10 renal
# BT-549 breast = test system: BT-549 breast
# SK-MEL-5 melanoma = test system: SK-MEL-5 melanoma
# MCF7 breast = test system: MCF7 breast
# MOLT-4 leukemia = test system: MOLT-4 leukemia
# OVCAR-3 ovarian = test system: OVCAR-3 ovarian
# HT29 colon = test system: HT29 colon
# SNB-75 CNS = test system: SNB-75 CNS
# SW-620 colon = test system: SW-620 colon
# SK-MEL-28 melanoma = test system: SK-MEL-28 melanoma
# NCI/ADR-RES ovarian = test system: NCI/ADR-RES ovarian
# OVCAR-5 ovarian = test system: OVCAR-5 ovarian
# 786-0 renal = test system: 786-0 renal
# KM12 colon = test system: KM12 colon
# HCT-15 colon = test system: HCT-15 colon
# UO-31 renal = test system: UO-31 renal
# M14 melanoma = test system: M14 melanoma
# MDA-MB-468 breast = test system: MDA-MB-468 breast
# SNB-19 CNS = test system: SNB-19 CNS
# MDA-MB-435 = test system: MDA-MB-435
# ACHN renal = test system: ACHN renal
# T-47D breast = test system: T-47D breast
# RPMI-8226 leukemia = test system: RPMI-8226 leukemia
# IGROV1 ovarian = test system: IGROV1 ovarian
# DU-145 prostate = test system: DU-145 prostate
# OVCAR-4 ovarian = test system: OVCAR-4 ovarian
# SF-268 CNS = test system: SF-268 CNS
# MDA-MB-231 breast = test system: MDA-MB-231 breast
structure (smiles),measurement,setting,value
C=C(C)[C@@H]1CC[C@]2(C(=O)OC)CC[C@]3(C)[C@H](CC[C@@H]4[C@@]5(C)CC[C@H](N)C(C)(C)[C@@H]5CC[C@]43C)[C@@H]12,GI50,HOP-62 NSCLC,1.83 µM
same,TGI,HOP-62 NSCLC,3.55 µM
same,GI50,CAKI-1 renal,1.62 µM
same,TGI,CAKI-1 renal,3.02 µM
same,GI50,NCI-H23 lung,1.78 µM
same,TGI,NCI-H23 lung,3.31 µM
same,GI50,HS 578T breast,2 µM
same,TGI,HS 578T breast,4.29 µM
same,GI50,SN12C renal,1.75 µM
same,TGI,SN12C renal,3.27 µM
same,GI50,SR leukemia,0.379 µM
same,TGI,SR leukemia,3.05 µM
same,GI50,SK-OV-3 ovarian,2.22 µM
same,TGI,SK-OV-3 ovarian,5.45 µM
same,GI50,MALME-3M melanoma,1.71 µM
same,TGI,MALME-3M melanoma,3.09 µM
same,GI50,SF-539 CNS,1.63 µM
same,TGI,SF-539 CNS,3 µM
same,GI50,SF-295 CNS,1.7 µM
same,TGI,SF-295 CNS,3.13 µM
same,GI50,NCI-H460 lung,1.43 µM
same,TGI,NCI-H460 lung,2.86 µM
same,GI50,A498 renal,1.45 µM
same,TGI,A498 renal,2.78 µM
same,GI50,UACC-257 melanoma,1.89 µM
same,TGI,UACC-257 melanoma,4.02 µM
same,GI50,OVCAR-8 ovarian,2.04 µM
same,TGI,OVCAR-8 ovarian,4.4 µM
same,GI50,CCRF-CEM leukemia,1.8 µM
same,TGI,CCRF-CEM leukemia,4.68 µM
same,GI50,RXF 393 renal,1.58 µM
same,TGI,RXF 393 renal,3.07 µM
same,GI50,NCI-H226 lung,1.94 µM
same,TGI,NCI-H226 lung,3.77 µM
same,GI50,K-562 leukemia,0.711 µM
same,TGI,K-562 leukemia,12.7 µM
same,GI50,EKVX NSCLC,1.83 µM
same,TGI,EKVX NSCLC,3.32 µM
same,GI50,U251 CNS,1.75 µM
same,TGI,U251 CNS,3.27 µM
same,GI50,HCC-2998 colon,1.65 µM
same,TGI,HCC-2998 colon,3.07 µM
same,GI50,SK-MEL-2 melanoma,2.04 µM
same,TGI,SK-MEL-2 melanoma,4.3 µM
same,GI50,PC-3 prostate,1.89 µM
same,TGI,PC-3 prostate,4.07 µM
same,GI50,HL-60(TB) leukemia,1.44 µM
same,TGI,HL-60(TB) leukemia,3.83 µM
same,GI50,LOX IMVI melanoma,1.33 µM
same,TGI,LOX IMVI melanoma,2.64 µM
same,GI50,UACC-62 melanoma,1.77 µM
same,TGI,UACC-62 melanoma,3.24 µM
same,GI50,HCT-116 colon,1.48 µM
same,TGI,HCT-116 colon,3.26 µM
same,GI50,HOP-92 NSCLC,1.58 µM
same,TGI,HOP-92 NSCLC,3.13 µM
same,GI50,NCI-H522 lung,1.75 µM
same,TGI,NCI-H522 lung,3.39 µM
same,GI50,TK-10 renal,1.89 µM
same,TGI,TK-10 renal,3.47 µM
same,GI50,BT-549 breast,2.47 µM
same,TGI,BT-549 breast,5.59 µM
same,GI50,SK-MEL-5 melanoma,1.93 µM
same,TGI,SK-MEL-5 melanoma,3.79 µM
same,GI50,MCF7 breast,1.05 µM
same,TGI,MCF7 breast,2.34 µM
same,GI50,MOLT-4 leukemia,2.5 µM
same,TGI,MOLT-4 leukemia,6.02 µM
same,GI50,OVCAR-3 ovarian,1.49 µM
same,TGI,OVCAR-3 ovarian,2.9 µM
same,GI50,HT29 colon,1.83 µM
same,TGI,HT29 colon,3.51 µM
same,GI50,SNB-75 CNS,1.48 µM
same,TGI,SNB-75 CNS,2.92 µM
same,GI50,SW-620 colon,1.14 µM
same,TGI,SW-620 colon,2.49 µM
same,GI50,SK-MEL-28 melanoma,1.68 µM
same,TGI,SK-MEL-28 melanoma,3.08 µM
same,GI50,NCI/ADR-RES ovarian,1.85 µM
same,TGI,NCI/ADR-RES ovarian,3.51 µM
same,GI50,OVCAR-5 ovarian,1.69 µM
same,TGI,OVCAR-5 ovarian,3.13 µM
same,GI50,786-0 renal,1.7 µM
same,TGI,786-0 renal,3.33 µM
same,GI50,KM12 colon,1.77 µM
same,TGI,KM12 colon,3.31 µM
same,GI50,HCT-15 colon,1.64 µM
same,TGI,HCT-15 colon,3.05 µM
same,GI50,UO-31 renal,1.51 µM
same,TGI,UO-31 renal,2.84 µM
same,GI50,M14 melanoma,1.99 µM
same,TGI,M14 melanoma,4.28 µM
same,GI50,MDA-MB-468 breast,1.77 µM
same,TGI,MDA-MB-468 breast,3.26 µM
same,GI50,SNB-19 CNS,1.72 µM
same,TGI,SNB-19 CNS,3.24 µM
same,GI50,MDA-MB-435,1.62 µM
same,TGI,MDA-MB-435,3.1 µM
same,GI50,ACHN renal,1.7 µM
same,TGI,ACHN renal,3.07 µM
same,GI50,T-47D breast,1.88 µM
same,TGI,T-47D breast,3.82 µM
same,GI50,RPMI-8226 leukemia,2.72 µM
same,TGI,RPMI-8226 leukemia,8.81 µM
same,GI50,IGROV1 ovarian,1.74 µM
same,TGI,IGROV1 ovarian,3.18 µM
same,GI50,DU-145 prostate,1.85 µM
same,TGI,DU-145 prostate,3.37 µM
same,GI50,OVCAR-4 ovarian,1.83 µM
same,TGI,OVCAR-4 ovarian,3.58 µM
same,GI50,SF-268 CNS,1.81 µM
same,TGI,SF-268 CNS,3.49 µM
same,GI50,MDA-MB-231 breast,1.78 µM
same,TGI,MDA-MB-231 breast,3.19 µM
